In patent publication US12606566B2, “Substituted cyclopenta[4,5]pyrrolo[1,2-a]pyrazines as bruton's tyrosine kinase inhibitors” (Shanghai Synergy Pharmaceutical Sciences Co., Ltd., priority 2020, dated 2026):

Columns and labels:
[1] = test system: tumour cells (A20 5E6 cells); test: Inhibitory effect on tumour cell proliferation (CCK8); format: cell-based; settings: CCK8 absorbance, read-out: Inhibitory effect of the compound on cell proliferation IC50
Description: This experiment was to determine the effect of the compound on cell proliferation.
To determine the inhibitory effect of the compound on the proliferation of tumour cells, tumour cells (A20 5E6 cells) were cultured to a certain amount and seeded into 96-well plates. […] The absorbance value was measured after the addition of CCK8 and 2 h incubation to determine the inhibitory effect of the compound on cell proliferation. The IC50 value of the compound was obtained by data fitted with Graphpad.

[2] = target: BTK kinase (Homo sapiens, UniProt Q06187); test: BTK kinase inhibitory activity, mobility shift method; format: biochemical; settings: compound co-incubated with the enzyme for 30 minutes
Sequence of BTK kinase (Q06187 whole entry): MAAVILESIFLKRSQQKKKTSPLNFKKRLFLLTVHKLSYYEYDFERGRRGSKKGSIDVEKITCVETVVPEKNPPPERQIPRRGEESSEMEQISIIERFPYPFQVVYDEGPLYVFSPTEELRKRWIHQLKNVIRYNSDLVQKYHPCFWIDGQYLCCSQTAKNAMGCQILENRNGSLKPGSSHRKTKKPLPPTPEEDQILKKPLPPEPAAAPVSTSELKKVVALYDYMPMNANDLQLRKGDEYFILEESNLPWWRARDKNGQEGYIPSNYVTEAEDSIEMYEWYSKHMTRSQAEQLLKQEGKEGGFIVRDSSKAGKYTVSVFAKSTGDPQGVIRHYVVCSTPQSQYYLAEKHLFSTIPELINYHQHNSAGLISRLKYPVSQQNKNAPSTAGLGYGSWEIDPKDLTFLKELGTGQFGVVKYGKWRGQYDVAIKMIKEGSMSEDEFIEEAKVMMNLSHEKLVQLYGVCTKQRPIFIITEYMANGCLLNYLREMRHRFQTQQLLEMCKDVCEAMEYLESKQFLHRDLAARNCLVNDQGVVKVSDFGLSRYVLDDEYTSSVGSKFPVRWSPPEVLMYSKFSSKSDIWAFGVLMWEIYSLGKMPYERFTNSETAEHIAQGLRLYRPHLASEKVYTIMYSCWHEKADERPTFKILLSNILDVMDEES
Description: The BTK kinase inhibitory activity of the compound was determined using a mobility shift method with the reaction system (kinase solution, ATP, kinase substrate2). The compound was co-incubated with the enzyme for 30 minutes, and then the conversion rate was read using the Caliper EZ reader. The compound inhibition rate was determined using the calculation formula and the data was fitted using Graphpad to derive the IC50 value for the compounds of this application.

C[C@H]1CN(C2COC2)CCN1c1ccc(Nc2cc(-c3ccnc(N4CCn5c6c(c(F)c5C4=O)CC(C)(C)C6)c3CO)cn(C)c2=O)nc1 [Example H01, (S)-9-fluoro-2-(3′-(hydroxymethyl)-1-methyl-5-((5-(2-methyl-4-(oxetan-3-yl)piperazin-1-yl)pyridin-2-yl)amino)-6-oxo-1,6-dihydro-[3,4′-bipyridin]-2′-yl)-7,7-dimethyl-3,4,7,8-tetrahydro-2H-cyclopenta[4,5]pyrrolo[1,2-a]pyrazin-1(6H)-one]
IC50 [1]: 24 nM | IC50 [2]: 0.23 nM

C[C@H]1CN(C2COC2)CCN1c1ccc(Nc2cc(-c3ccnc(N4CCn5c6c(c(Cl)c5C4=O)CC(C)(C)C6)c3CO)cn(C)c2=O)nc1 [Example H02, (S)-9-chloro-2-(3′-(hydroxymethyl)-1-methyl-5-((5-(2-methyl-4-(oxetan-3-yl)piperazin-1-yl)pyridin-2-yl)amino)-6-oxo-1,6-dihydro-[3,4′-bipyridin]-2′-yl)-7,7-dimethyl-3,4,7,8-tetrahydro-2H-cyclopenta[4,5]pyrrolo[1,2-a]pyrazin-1(6H)-one]
IC50 [1]: 23 nM | IC50 [2]: 0.59 nM

Cc1c2c(n3c1C(=O)N(c1nccc(-c4cc(Nc5ccc(N6CCN(C7COC7)C[C@@H]6C)cn5)c(=O)n(C)c4)c1CO)CC3)CC(C)(C)C2 [Example H03, (S)-2-(3′-(hydroxymethyl)-1-methyl-5-((5-(2-methyl-4-(oxetan-3-yl)piperazin-1-yl)pyridin-2-yl)amino)-6-oxo-1,6-dihydro-[3,4′-bipyridin]-2′-yl)-7,7,9-trimethyl-3,4,7,8-tetrahydro-2H-cyclopenta[4,5]pyrrolo[1,2-a]pyrazin-1(6H)-one]
IC50 [1]: 61 nM | IC50 [2]: 0.14 nM

CC(C)n1cc(-c2ccnc(N3CCn4c(cc5c4CC(C)(C)C5)C3=O)c2CO)cc(Nc2ccc(N3CCN(C4COC4)C[C@@H]3C)cn2)c1=O [Example H04, (S)-2-(3′-(hydroxymethyl)-1-isopropyl-5-((5-(2-methyl-4-(oxetan-3-yl)piperazin-1-yl)pyridin-2-yl)amino)-6-oxo-1,6-dihydro-[3,4′-bipyridin]-2′-yl)-7,7-dimethyl-3,4,7,8-tetrahydro-2H-cyclopenta[4,5]pyrrolo[1,2-a]pyrazin-1(6H)-one]
IC50 [1]: 26 nM | IC50 [2]: 0.26 nM

C[C@H]1CN(C2COC2)CCN1c1ccc(Nc2cc(-c3cc(C#N)cc(N4CCn5c(cc6c5CC(C)(C)C6)C4=O)c3CO)cn(C)c2=O)nc1 [Example H05, (S)-3-(7,7-dimethyl-1-oxo-1,3,4,6,7,8-hexahydro-2H-cyclopenta [4,5]pyrrolo[1,2-a]pyrazin-2-yl)-4-(hydroxymethyl)-5-(1-methyl-5-((5-(2-methyl-4-(oxetan-3-yl)piperazin-1-yl)pyridin-2-yl)amino)-6-oxo-1,6-dihydropyridin-3-yl) benzonitrile]
IC50 [1]: 23 nM | IC50 [2]: 0.69 nM

C[C@H]1CN(C2COC2)CCN1c1ccc(Nc2cc(-c3ccc(C#N)c(N4CCn5c(cc6c5CC(C)(C)C6)C4=O)c3CO)cn(C)c2=O)nc1 [Example H06, (S)-2-(7,7-dimethyl-1-oxo-1,3,4,6,7,8-hexahydro-2H-cyclopenta [4,5]pyrrolo[1,2-a]pyrazin-2-yl)-3-(hydroxymethyl)-4-(1-methyl-5-((5-(2-methyl-4-(oxetan-3-yl)piperazin-1-yl)pyridin-2-yl)amino)-6-oxo-1,6-dihydropyridin-3-yl) benzonitrile]
IC50 [1]: 31 nM | IC50 [2]: 0.41 nM

C[C@H]1CN(C2COC2)CCN1c1ccc(Nc2cc(-c3c(C#N)ccc(N4CCn5c(cc6c5CC(C)(C)C6)C4=O)c3CO)cn(C)c2=O)nc1 [Example H07, (S)-4-(7,7-dimethyl-1-oxo-1,3,4,6,7,8-hexahydro-2H-cyclopenta [4,5]pyrrolo[1,2-a]pyrazin-2-yl)-3-(hydroxymethyl)-2-(1-methyl-5-((5-(2-methyl-4-(oxetan-3-yl)piperazin-1-yl)pyridin-2-yl)amino)-6-oxo-1,6-dihydropyridin-3-yl) benzonitrile]
IC50 [1]: 40 nM | IC50 [2]: 0.38 nM

CN1CCN(c2ccc(Nc3cc(-c4ccnc(N5CCn6c(cc7c6CC(C)(C)C7)C5=O)c4CO)nc4ccoc34)nc2)CC1 [Example H08, 2-(3-(hydroxymethyl)-4-(7-((5-(4-methylpiperazin-1-yl)pyridin-2-yl)amino)furo[3,2-b]pyridin-5-yl)pyridin-2-yl)-7,7-dimethyl-3,4,7,8-tetrahydro-2H-cyclopenta[4,5]pyrrolo[1,2-a]pyrazin-1(6H)-one]
IC50 [1]: 29 nM | IC50 [2]: 0.23 nM

CC1(C)Cc2cc3n(c2C1)CCN(c1nccc(-c2cc(Nc4ccc(N5CCN(C6COC6)CC5)cn4)c4occc4n2)c1CO)C3=O [Example H09, 2-(3-(hydroxymethyl)-4-(7-((5-(4-(oxetan-3-yl)piperazin-1-yl)pyridin-2-yl)amino)furo[3,2-b]pyridin-5-yl)pyridin-2-yl)-7,7-dimethyl-3,4,7,8-tetrahydro-2H-cyclopenta[4,5]pyrrolo[1,2-a]pyrazin-1(6H)-one]
IC50 [1]: 31 nM | IC50 [2]: 0.71 nM

Cn1cc(-c2ccnc(N3CCn4c5c(c(F)c4C3=O)CC(C)(C)C5)c2CO)cc(Nc2ccc(N3CCN(C4COC4)CC3)cn2)c1=O [Example H10, 9-fluoro-2-(3′-(hydroxymethyl)-1-methyl-5-((5-(4-(oxetan-3-yl)piperazin-1-yl)pyridin-2-yl)amino)-6-oxo-1,6-dihydro-[3,4′-bipyridin]-2′-yl)-7,7-dimethyl-3,4,7,8-tetrahydro-2H-cyclopenta[4,5]pyrrolo[1,2-a]pyrazin-1(6H)-one]
IC50 [1]: 21 nM | IC50 [2]: 0.21 nM

C[C@H]1CN(C2COC2)CCN1c1ccc(Nc2cc(-c3ccnc(N4CCn5c6c(c(C#N)c5C4=O)CC(C)(C)C6)c3CO)cn(C)c2=O)nc1 [Example H18, (S)-2-(3′-(hydroxymethyl)-1-methyl-5-((5-(2-methyl-4-(oxetan-3-yl)piperazin-1-yl)pyridin-2-yl)amino)-6-oxo-1,6-dihydro-[3,4′-bipyridin]-2′-yl)-7,7-dimethyl-1-oxo-1,3,4,6,7,8-hexahydro-2H-cyclopenta[4,5]pyrrolo[1,2-a]pyrazine-9-carbonitrile]
IC50 [2]: 0.65 nM

C[C@H]1CN(C2COC2)CCN1c1ccc(Nc2cc(-c3ccnc(N4CCn5c6c(c(C(F)(F)F)c5C4=O)CC(C)(C)C6)c3CO)cn(C)c2=O)nc1 [Example H19, (S)-2-(3′-(hydroxymethyl)-1-methyl-5-((5-(2-methyl-4-(oxetan-3-yl)piperazin-1-yl)pyridin-2-yl)amino)-6-oxo-1,6-dihydro-[3,4′-bipyridin]-2′-yl)-7,7-dimethyl-9-(trifluoromethyl)-3,4,7,8-hexahydro-2H-cyclopenta[4,5]pyrrolo[1,2-a]pyrazine-1(6H)-one]
IC50 [2]: 0.52 nM

CCOc1c2c(n3c1C(=O)N(c1nccc(-c4cc(Nc5ccc(N6CCN(C7COC7)C[C@@H]6C)cn5)c(=O)n(C)c4)c1CO)CC3)CC(C)(C)C2 [Example H20, (S)-9-ethoxy-2-(3′-(hydroxymethyl)-1-methyl-5-((5-(2-methyl-4-(oxetan-3-yl)piperazin-1-yl)pyridin-2-yl)amino)-6-oxo-1,6-dihydro-[3,4′-bipyridyl]-2′-yl)-7,7-dimethyl-3,4,7,8-tetrahydro-2H-cyclopenta[4,5]pyrrolo[1,2-a]pyrazin-1(6H)-one]
IC50 [2]: 0.55 nM

C[C@H]1CN(C2COC2)CCN1c1ccc(Nc2cc(-c3ccnc(N4CCn5c6c(c(OC7CC7)c5C4=O)CC(C)(C)C6)c3CO)cn(C)c2=O)nc1 [Example H23, (S)-9-cyclopropoxy-2-(3′-(hydroxymethyl)-1-methyl-5-((5-(2-methyl-4-(oxetan-3-yl)piperazin-1-yl)pyridin-2-yl)amino)-6-oxo-1,6-dihydro-[3,4′-bipyridin]-2′-yl)-7,7-dimethyl-3,4,7,8-tetrahydro-2H-cyclopenta[4,5]pyrrolo[1,2-a]pyrazin-1(6H)-one]
IC50 [2]: 0.51 nM

CC(C)Oc1c2c(n3c1C(=O)N(c1nccc(-c4cc(Nc5ccc(N6CCN(C7COC7)C[C@@H]6C)cn5)c(=O)n(C)c4)c1CO)CC3)CC(C)(C)C2 [Example H24, (S)-2-(3′-(hydroxymethyl)-1-methyl-5-((5-(2-methyl-4-(oxetan-3-yl)piperazin-1-yl)pyridin-2-yl)amino)-6-oxo-1,6-dihydro-[3,4′-bipyridin]-2′-yl)-9-isopropoxy-7,7-dimethyl-3,4,7,8-tetrahydro-2H-cyclopenta[4,5]pyrrolo[1,2-a]pyrazin-1(6H)-one]
IC50 [2]: 0.65 nM

C[C@H]1CN(C2COC2)CCN1c1ccc(Nc2cc(-c3ccnc(N4CCn5c6c(c(N)c5C4=O)CC(C)(C)C6)c3CO)cn(C)c2=O)nc1 [Example H25, (S)-9-amino-2-(3′-(hydroxymethyl)-1-methyl-5-((5-(2-methyl-4-(oxetan-3-yl)piperazin-1-yl)pyridin-2-yl)amino)-6-oxo-1,6-dihydro-[3,4′-bipyridin]-2′-yl)-7,7-dimethyl-3,4,7,8-tetrahydro-2H-cyclopenta[4,5]pyrrolo[1,2-a]pyrazin-1(6H)-one]
IC50 [2]: 0.44 nM

CNc1c2c(n3c1C(=O)N(c1nccc(-c4cc(Nc5ccc(N6CCN(C7COC7)C[C@@H]6C)cn5)c(=O)n(C)c4)c1CO)CC3)CC(C)(C)C2 [Example H26, (S)-2-(3′-(hydroxymethyl)-1-methyl-5-((5-(2-methyl-4-(oxetan-3-yl)piperazin-1-yl)pyridin-2-yl)amino)-6-oxo-1,6-dihydro-[3,4′-bipyridin]-2′-yl)-9-methylamino-7,7-dimethyl-3,4,7,8-tetrahydro-2H-cyclopenta[4,5]pyrrolo[1,2-a]pyrazin-1(6H)-one]
IC50 [2]: 0.46 nM

C=CC(=O)N1CCC[C@@H](n2nc(-c3ccc(Oc4ccccc4)cc3)c3c(N)ncnc32)C1 [Ibrutinib, reference compound]
IC50 [1]: 87 nM
